Assay results: patent US20230397605A1, “METHODS FOR IMPROVING PLANT GROWTH AND CROP YIELD BY USING COMPOUNDS OF TRISULPHIDE OR TETRASULPHIDE” (UNIVERSITY OF IOWA RESEARCH FOUNDATION, priority 2020, published 2023)

Assays:
[1] = system: radish; settings: cited from earlier work
[2] = system: peas; settings: cited from earlier work
[3] = system: lettuce plants; settings: cited from earlier work
[4] = system: Lettuce; assay: Growth of lettuce in nutrient-film technique hydroponic system (fresh weight of leafy head at harvest); format: in vivo, lettuce (buttercrunch); settings: treatment day 42, harvest day 58, N=28 (control mean 36.13 g)
Protocol: Lettuce was grown in a nutrient-film technique hydroponic system. The seedlings were grown under LED light film with a 14 hour on time, and a 10 hour off time. The lettuce seeds were purchased from Johnny Selected Seeds. The seed variety was buttercrunch, ID 435 g. The nutrients used were Chem-Gro lettuce formula NPK with micronutrients. Calcium nitrate and magnesium sulfate were also added to the nutrients. The nutrients and the NAC-trisulfide were added to the nutrient bucket, Which was a 4 gallon bucket that recirculated the nutrient solution through the entire NFT system to bathe the roots of the lettuce plants with nutrients and water. An air stone with air pump was used in each nutrient bucket to provide aeration to the nutrient solution. […] The nutrient reservoirs were kept pH balanced and nutrient levels were kept steady. The nutrient loading measured in EC (electrical conductivity) would gradually increase as the water was consumed but would return to normal levels once water was added to return the buckets to the max volume of 4 gallons. The conductivity (EC) and pH were measured every 1 to 2 days. Nutrient was added as EC at 4 gallons would approach a value of 0.5 EC. The starting nutrient loading was 1.7 EC, The pH of the nutrient solution was balanced using phosphoric acid “pH down” solution. The pH of the nutrient solution ranged between 6.4-7.4.
The lettuce seeds were started in a separate flood tray. The seeds were sowed into an inert solid support (Oasis Horticubes) and the support absorbed water and nutrients like a sponge. The seedlings were then grown in the seeding hay for 33 days prior to transplant into the channels. At day 42. N-acteyl cysteine trisulfide (NAC trisulfide) was added to the nutrient of the lettuce plants. […]
The lettuce plants were harvested by cutting at the root boundary and discarding the roots along with the solid support. The leafy head of lettuce was then weighed to quantify the fresh weight of the lettuce reported in the graphs (see FIG. 1).

SMILES	harvest yield of radishes ([1]; milligram loadings applied)	growth of plants ([1]; radish)	growth of plants [2]	growth of plants [3]	Fresh Weight (g) Mean ([4]; group 2, 0.2449 g/4 gal nutrient reservoir)	Fresh Weight (g) Mean ([4]; group 3, 0.7475 g/4 gal nutrient reservoir)	Fresh Weight (g) Mean ([4]; group 4, 1.6112 g/4 gal nutrient reservoir)
C1COCCN1.COc1ccc(P(=S)(S)N2CCOCC2)cc1 (stereo not shown) [GYY-4137]	doubled	increased the growth	increased the growth	increased the growth			
CC(=O)N[C@@H](CSSSC[C@H](NC(C)=O)C(=O)O)C(=O)O [NAC trisulfide, N-acetyl cysteine trisulfide]					42.50 g	51.44 g	56.07 g
